Results: patent publication US20050112573A1, “Method of detecting toxic substance” (priority 2001, published 2005)

System: yeast genes (level of expressed mRNA)
Assay: DNA chip analysis of expressed mRNA of yeast genes after 2 h culture with a toxic chemical substance
Assay type: cell-based, Saccharomyces cerevisiae S288C
Method: Yeast (Saccharomyces cerevtisiae S288C (α SUC2mal mel gap2 CUP1)) were cultured at 25° C. on YPD medium (yeast extract 1%, polypepton 2%, glucose 2%). One of toxic chemical substances was added to the cell at logarithmic growth phase, and the cell was further cultured for two hours. Cell was cultured without any chemical substance in the same condition, and was used as control. Concentrations of the chemical substances were defined to inhibit the growth of the yeast but not lead to death.
After the completion of cultivation, the culture was centrifuged to collect the cells. To the cells, sodium acetate buffer (50 mM sodium acetate, 10 mM EDTA, 1% SDS) was added, and the mixture was shaken at 65° C. for five minutes, followed by returning to room temperature, and obtaining the supernatant, which procedure was repeated two times. To the supernatant, ½ amount of a solution of phenol/chloroform was added, and the mixture was centrifuged to give a supernatant, which was added with an equal amount of chloroform, and the mixture was centrifuged to give a supernatant. To the supernatant, an equal amount of isopropanol containing 0.3 M sodium acetate was added, and the mixture was allowed to stand at room temperature for 30 minutes, after which the mixture was centrifuged to give a sediment of the whole RNAs. Seventy % ethanol was added to the sediment, and the mixture was again centrifuged to give a sediment, which was then dried and dissolved in water. mRNA was isolated from the whole RNAs as followings. In view of the fact that a poly A chain is attached to the 3′ terminus of mRNA, a polynucleotide having a poly T structure which was immobilized on the surface of latex beads was used to trap the mRNA, and then the mRNA was washed and eluted with spine column (Oligotex-dT30<Super>mRNA Purification Kit, Takara). Reverse transcription of the mRNA was conducted with a reverse transcriptase (Super Script II Reverse Transcriptase; catalogue No. 18064-014, GibcoBRL) using fluorescence-labeled nucleotides to give cDNAs that were introduced with Cy3-dUTP or Cy5-dUTP during the reverse transcription.
The labeled cDNAs were dissolved in TE buffer (10 mM Tris-HCl/1 mM EDTA, pH8.0), and the solution was dropped on the DNA chip containing the whole genes of yeast (DNA Chip Research Inc. Japan) so that the cDNAs were hybridized on the DNA chip at 65° C. for over 12 hours. The fluoresces intensity of the DNA chip was read with a scanner, and the ratio relative to the fluorescence intensity resulting from the absence of chemical substance was estimated as the following, which is shown in Tables 1 to 9: [formula]
In the Tables, “Intensity” indicated in the rightmost column is a value of the level of expressed mRNA of each gene in control cells as divided by the average level of the expressions of the whole genes.

For `C=CC=O` [(14), acrolein], the “The level of expressed mRNA in the presence of chemical substance/absence: YGR293C” value (gene YGR293C) was 1.0, the “The level of expressed mRNA in the presence of chemical substance/absence: YHL006C” value (gene YHL006C) was 1.1 and the “The level of expressed mRNA in the presence of chemical substance/absence: YHL021C” value (gene YHL021C) was 1.1. For the same compound, the “The level of expressed mRNA in the presence of chemical substance/absence: YHL037C” value (gene YHL037C) was 0.9, the “level of expressed mRNA in the presence of chemical substance/in its absence” value (“level … of chemical substance/in its absence” for short) (gene YHR037W) was 1.1 and the “The level of expressed mRNA in the presence of chemical substance/absence: YHR083W” value (gene YHR083W) was 1.6. The “level … of chemical substance/in its absence” value (gene YHR092C) was 1.6, the “The level of expressed mRNA in the presence of chemical substance/absence: YHR095W” value (gene YHR095W) was 0.9 and the “The level of expressed mRNA in the presence of chemical substance/absence: YHR105W” value (gene YHR105W) was 1.2. The “The level of expressed mRNA in the presence of chemical substance/absence: YHR134W” value (gene YHR134W) was 1.6, the “level … of chemical substance/in its absence” value (gene YHR137W) was 0.8 and the “The level of expressed mRNA in the presence of chemical substance/absence: YHR180W” value (gene YHR180W) was 1.5. The “The level of expressed mRNA in the presence of chemical substance/absence: YHR181W” value (gene YHR181W) was 1.6, the “level … of chemical substance/in its absence” value (gene YHR190W) was 1.3 and the “level … of chemical substance/in its absence” value (gene YIL033C) was 0.7. For the same compound, the “The level of expressed mRNA in the presence of chemical substance/absence: YIL108W” value (gene YIL108W) was 1.0, the “The level of expressed mRNA in the presence of chemical substance/absence: YIL127C” value (gene YIL127C) was 1.3 and the “level … of chemical substance/in its absence” value (gene YIL154C) was 0.9. The “The level of expressed mRNA in the presence of chemical substance/absence: YIL165C” value (gene YIL165C) was 1.3, the “level … of chemical substance/in its absence” value (gene YIL167W) was 1.4 and the “level … of chemical substance/in its absence” value (gene YIR035C) was 1.1. For the same compound, the “The level of expressed mRNA in the presence of chemical substance/absence: YJL017W” value (gene YJL017W) was 1.0, the “The level of expressed mRNA in the presence of chemical substance/absence: YJL032W” value (gene YJL032W) was 1.6 and the “The level of expressed mRNA in the presence of chemical substance/absence: YJL037W” value (gene YJL037W) was 2.0. For the same compound, the “The level of expressed mRNA in the presence of chemical substance/absence: YJL049W” value (gene YJL049W) was 1.8, the “level … of chemical substance/in its absence” value (gene YJL088W) was 2.0 and the “The level of expressed mRNA in the presence of chemical substance/absence: YJL097W” value (gene YJL097W) was 1.0. For the same compound, the “level … of chemical substance/in its absence” value (gene YJL132W) was 1.4, the “level … of chemical substance/in its absence” value (gene YJL196C) was 0.8 and the “The level of expressed mRNA in the presence of chemical substance/absence: YJR030C” value (gene YJR030C) was 1.0. The “The level of expressed mRNA in the presence of chemical substance/absence: YJR044C” value (gene YJR044C) was 1.3, the “level … of chemical substance/in its absence” value (gene YJR142W) was 1.3 and the “level … of chemical substance/in its absence” value (gene YJR148W) was 1.3. For the same compound, the “level … of chemical substance/in its absence” value (gene YJR159W) was 2.0, the “The level of expressed mRNA in the presence of chemical substance/absence: YKL051W” value (gene YKL051W) was 0.7 and the “The level of expressed mRNA in the presence of chemical substance/absence: YKL059C” value (gene YKL059C) was 1.1. For the same compound, the “level … of chemical substance/in its absence” value (gene YKL067W) was 1.2, the “The level of expressed mRNA in the presence of chemical substance/absence: YKL090W” value (gene YKL090W) was 1.4 and the “The level of expressed mRNA in the presence of chemical substance/absence: YKL094W” value (gene YKL094W) was 1.3. For the same compound, the “The level of expressed mRNA in the presence of chemical substance/absence: YKL097C” value (gene YKL097C) was 1.0, the “The level of expressed mRNA in the presence of chemical substance/absence: YKL100C” value (gene YKL100C) was 1.0 and the “level … of chemical substance/in its absence” value (gene YKR039W) was 1.2. The “The level of expressed mRNA in the presence of chemical substance/absence: YKR040C” value (gene YKR040C) was 3.8, the “The level of expressed mRNA in the presence of chemical substance/absence: YLR097C” value (gene YLR097C) was 1.7 and the “level … of chemical substance/in its absence” value (gene YLR142W) was 2.1. The “level … of chemical substance/in its absence” value (gene YLR180W) was 0.6, the “The level of expressed mRNA in the presence of chemical substance/absence: YLR226W” value (gene YLR226W) was 1.1 and the “level … of chemical substance/in its absence” value (gene YLR273C) was 1.3. For the same compound, the “level … of chemical substance/in its absence” value (gene YLR300W) was 0.6, the “level … of chemical substance/in its absence” value (gene YLR307W) was 1.9 and the “The level of expressed mRNA in the presence of chemical substance/absence: YLR338W” value (gene YLR338W) was 0.8. For the same compound, the “The level of expressed mRNA in the presence of chemical substance/absence: YLR339C” value (gene YLR339C) was 0.5, the “The level of expressed mRNA in the presence of chemical substance/absence: YLR392C” value (gene YLR392C) was 1.1 and the “The level of expressed mRNA in the presence of chemical substance/absence: YLR415C” value (gene YLR415C) was 0.8. The “The level of expressed mRNA in the presence of chemical substance/absence: YLR427W” value (gene YLR427W) was 0.8, the “The level of expressed mRNA in the presence of chemical substance/absence: YML013W” value (gene YML013W) was 1.1 and the “The level of expressed mRNA in the presence of chemical substance/absence: YML029W” value (gene YML029W) was 1.6.
